Laboratory results taken from publication PMC10227015, “From a drug repositioning to a structure-based drug design approach to tackle acute lymphoblastic leukemia” (Nature Communications, 2023).

What was measured:
Assay in all cases: KINOMEscan competition binding
Conditions in all cases: OR0642 1 µM; read-out: %Control
[1] = target: T1, PDGFRB (Homo sapiens, UniProt P09619)
T1 construct: purchased Eurofins DiscoverX (KINOMEscan scanEDGE 97)
Experimental: (§1) Kinome profiling was provided by Eurofins DiscoverX Corporation. Determination of the % control activity for 97 kinases was obtained through an active site-directed competition binding assay that quantitatively measure interactions between compound and kinases. OR0642 was used at 1 μM.
(§2) Supplementary Table 3. KINOMEscan™ Profiling of OR0642. Competition binding assay to
(§3) quantitatively measure interactions between OR0642 (1 µM) and 97 human kinases and disease
(§4) relevant mutant variants.

[2] = target: T2, KIT(D816V) (Homo sapiens, UniProt P10721, D816V)
T2 construct: purchased Eurofins DiscoverX (KINOMEscan scanEDGE 97)
Experimental: as §1, §2, §3, §4

[3] = target: T3, ALK (Homo sapiens, UniProt Q9UM73)
T3 construct: purchased Eurofins DiscoverX (KINOMEscan scanEDGE 97)
Experimental: as §1, §2, §3, §4

[4] = target: T4, CDK2 (Homo sapiens, UniProt P24941)
T4 construct: purchased Eurofins DiscoverX (KINOMEscan scanEDGE 97)
Experimental: as §1, §2, §3, §4

[5] = target: T5, FAK (Homo sapiens, UniProt Q05397)
T5 construct: purchased Eurofins DiscoverX (KINOMEscan scanEDGE 97)
Experimental: as §1, §2, §3, §4

[6] = target: T6, JNK1 (Homo sapiens, UniProt P45983)
T6 construct: purchased Eurofins DiscoverX (KINOMEscan scanEDGE 97)
Experimental: as §1, §2, §3, §4

[7] = target: T7, CSF1R (Homo sapiens, UniProt P07333)
T7 construct: purchased Eurofins DiscoverX (KINOMEscan scanEDGE 97)
Experimental: as §1, §2, §3, §4

[8] = target: T8, FGFR3 (Homo sapiens, UniProt P22607)
T8 construct: purchased Eurofins DiscoverX (KINOMEscan scanEDGE 97)
Experimental: as §1, §2, §3, §4

[9] = target: T9, AKT2 (Homo sapiens, UniProt P31751)
T9 construct: purchased Eurofins DiscoverX (KINOMEscan scanEDGE 97)
Experimental: as §1, §2, §3, §4

[10] = target: T10, JNK3 (Homo sapiens, UniProt P53779)
T10 construct: purchased Eurofins DiscoverX (KINOMEscan scanEDGE 97)
Experimental: as §1, §2, §3, §4

[11] = target: T11, CDK11 (Homo sapiens, UniProt Q9BWU1)
T11 construct: purchased Eurofins DiscoverX (KINOMEscan scanEDGE 97)
Experimental: as §1, §2, §3, §4

[12] = target: T12, PIK3CA (Homo sapiens, UniProt P42336)
T12 construct: purchased Eurofins DiscoverX (KINOMEscan scanEDGE 97)
Experimental: as §1, §2, §3, §4

[13] = target: T13, ERBB4 (Homo sapiens, UniProt Q15303)
T13 construct: purchased Eurofins DiscoverX (KINOMEscan scanEDGE 97)
Experimental: as §1, §2, §3, §4

[14] = target: T14, LKB1 (Homo sapiens, UniProt Q15831)
T14 construct: purchased Eurofins DiscoverX (KINOMEscan scanEDGE 97)
Experimental: as §1, §2, §3, §4

[15] = target: T15, MLK1 (Homo sapiens, UniProt P80192)
T15 construct: purchased Eurofins DiscoverX (KINOMEscan scanEDGE 97)
Experimental: as §1, §2, §3, §4

[16] = target: T16, BMPR2 (Homo sapiens, UniProt Q13873)
T16 construct: purchased Eurofins DiscoverX (KINOMEscan scanEDGE 97)
Experimental: as §1, §2, §3, §4

[17] = target: T17, GSK3B (Homo sapiens, UniProt P49841)
T17 construct: purchased Eurofins DiscoverX (KINOMEscan scanEDGE 97)
Experimental: as §1, §2, §3, §4

[18] = target: T18, JNK2 (Homo sapiens, UniProt P45984)
T18 construct: purchased Eurofins DiscoverX (KINOMEscan scanEDGE 97)
Experimental: as §1, §2, §3, §4

[19] = target: T19, MKNK1 (Homo sapiens, UniProt Q9BUB5)
T19 construct: purchased Eurofins DiscoverX (KINOMEscan scanEDGE 97)
Experimental: as §1, §2, §3, §4

[20] = target: T20, KIT(V559D,T670I) (Homo sapiens, UniProt P10721, T670I/V559D)
T20 construct: purchased Eurofins DiscoverX (KINOMEscan scanEDGE 97)
Experimental: as §1, §2, §3, §4

[21] = target: T21, EPHA2 (Homo sapiens, UniProt P29317)
T21 construct: purchased Eurofins DiscoverX (KINOMEscan scanEDGE 97)
Experimental: as §1, §2, §3, §4

[22] = target: T22, CSNK1G2 (Homo sapiens, UniProt P78368)
T22 construct: purchased Eurofins DiscoverX (KINOMEscan scanEDGE 97)
Experimental: as §1, §2, §3, §4

[23] = target: T23, PDPK1 (Homo sapiens, UniProt O15530)
T23 construct: purchased Eurofins DiscoverX (KINOMEscan scanEDGE 97)
Experimental: as §1, §2, §3, §4

[24] = target: T24, BRAF (Homo sapiens, UniProt P15056)
T24 construct: purchased Eurofins DiscoverX (KINOMEscan scanEDGE 97)
Experimental: as §1, §2, §3, §4

[25] = target: T25, BRAF(V600E) (Homo sapiens, UniProt P15056, V600E)
T25 construct: purchased Eurofins DiscoverX (KINOMEscan scanEDGE 97)
Experimental: as §1, §2, §3, §4

[26] = target: T26, MEK1 (Homo sapiens, UniProt Q02750)
T26 construct: purchased Eurofins DiscoverX (KINOMEscan scanEDGE 97)
Experimental: as §1, §2, §3, §4

[27] = target: T27, PIK3CG (Homo sapiens, UniProt P48736)
T27 construct: purchased Eurofins DiscoverX (KINOMEscan scanEDGE 97)
Experimental: as §1, §2, §3, §4

[28] = target: T28, AKT1 (Homo sapiens, UniProt P31749)
T28 construct: purchased Eurofins DiscoverX (KINOMEscan scanEDGE 97)
Experimental: as §1, §2, §3, §4

[29] = target: T29, MEK2 (Homo sapiens, UniProt P36507)
T29 construct: purchased Eurofins DiscoverX (KINOMEscan scanEDGE 97)
Experimental: as §1, §2, §3, §4

[30] = target: T30, MET (Homo sapiens, UniProt P08581)
T30 construct: purchased Eurofins DiscoverX (KINOMEscan scanEDGE 97)
Experimental: as §1, §2, §3, §4

[31] = target: T31, ABL1-phosphorylated (Homo sapiens, UniProt P00519)
T31 construct: purchased Eurofins DiscoverX (KINOMEscan scanEDGE 97)
Experimental: as §1, §2, §3, §4

[32] = target: T32, IKK-alpha (Homo sapiens, UniProt O15111)
T32 construct: purchased Eurofins DiscoverX (KINOMEscan scanEDGE 97)
Experimental: as §1, §2, §3, §4

[33] = target: T33, PAK4 (Homo sapiens, UniProt O96013)
T33 construct: purchased Eurofins DiscoverX (KINOMEscan scanEDGE 97)
Experimental: as §1, §2, §3, §4

T17 sequence (P49841 whole entry): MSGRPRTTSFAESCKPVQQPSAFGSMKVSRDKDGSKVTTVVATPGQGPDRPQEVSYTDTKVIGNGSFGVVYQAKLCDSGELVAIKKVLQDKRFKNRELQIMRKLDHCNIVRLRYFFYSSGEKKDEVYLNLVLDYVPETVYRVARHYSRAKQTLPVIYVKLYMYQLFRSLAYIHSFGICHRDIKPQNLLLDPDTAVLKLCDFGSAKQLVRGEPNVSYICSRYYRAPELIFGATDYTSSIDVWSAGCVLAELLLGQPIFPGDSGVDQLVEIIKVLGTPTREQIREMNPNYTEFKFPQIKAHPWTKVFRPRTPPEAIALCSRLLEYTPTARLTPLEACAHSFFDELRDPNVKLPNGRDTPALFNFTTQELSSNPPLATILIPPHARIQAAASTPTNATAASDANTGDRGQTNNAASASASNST
T7 sequence (P07333 20-972): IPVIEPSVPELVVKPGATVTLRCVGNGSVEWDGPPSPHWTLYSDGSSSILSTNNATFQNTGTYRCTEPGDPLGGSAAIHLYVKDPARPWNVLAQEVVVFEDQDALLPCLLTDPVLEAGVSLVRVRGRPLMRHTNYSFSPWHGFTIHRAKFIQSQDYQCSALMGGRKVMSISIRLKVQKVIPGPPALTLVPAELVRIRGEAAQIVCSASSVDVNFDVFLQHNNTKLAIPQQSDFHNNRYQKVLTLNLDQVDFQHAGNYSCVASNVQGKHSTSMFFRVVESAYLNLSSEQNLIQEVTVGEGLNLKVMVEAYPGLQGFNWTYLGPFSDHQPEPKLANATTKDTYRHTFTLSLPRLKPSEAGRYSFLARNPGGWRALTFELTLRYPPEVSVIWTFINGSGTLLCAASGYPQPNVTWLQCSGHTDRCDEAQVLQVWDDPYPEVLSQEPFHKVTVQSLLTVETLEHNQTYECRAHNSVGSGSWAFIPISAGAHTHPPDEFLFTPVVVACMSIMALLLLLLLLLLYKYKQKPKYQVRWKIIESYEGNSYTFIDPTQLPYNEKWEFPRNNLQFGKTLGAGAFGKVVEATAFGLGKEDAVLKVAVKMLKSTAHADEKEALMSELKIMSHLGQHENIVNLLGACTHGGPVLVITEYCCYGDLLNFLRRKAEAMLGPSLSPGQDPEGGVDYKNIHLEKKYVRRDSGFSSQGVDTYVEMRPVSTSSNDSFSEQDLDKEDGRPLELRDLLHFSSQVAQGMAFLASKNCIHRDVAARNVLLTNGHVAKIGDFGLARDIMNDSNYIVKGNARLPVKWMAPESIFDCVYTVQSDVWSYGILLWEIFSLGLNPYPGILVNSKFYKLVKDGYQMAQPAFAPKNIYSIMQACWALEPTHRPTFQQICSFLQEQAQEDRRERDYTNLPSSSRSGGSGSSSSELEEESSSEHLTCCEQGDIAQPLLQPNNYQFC
T5 sequence (Q05397 whole entry): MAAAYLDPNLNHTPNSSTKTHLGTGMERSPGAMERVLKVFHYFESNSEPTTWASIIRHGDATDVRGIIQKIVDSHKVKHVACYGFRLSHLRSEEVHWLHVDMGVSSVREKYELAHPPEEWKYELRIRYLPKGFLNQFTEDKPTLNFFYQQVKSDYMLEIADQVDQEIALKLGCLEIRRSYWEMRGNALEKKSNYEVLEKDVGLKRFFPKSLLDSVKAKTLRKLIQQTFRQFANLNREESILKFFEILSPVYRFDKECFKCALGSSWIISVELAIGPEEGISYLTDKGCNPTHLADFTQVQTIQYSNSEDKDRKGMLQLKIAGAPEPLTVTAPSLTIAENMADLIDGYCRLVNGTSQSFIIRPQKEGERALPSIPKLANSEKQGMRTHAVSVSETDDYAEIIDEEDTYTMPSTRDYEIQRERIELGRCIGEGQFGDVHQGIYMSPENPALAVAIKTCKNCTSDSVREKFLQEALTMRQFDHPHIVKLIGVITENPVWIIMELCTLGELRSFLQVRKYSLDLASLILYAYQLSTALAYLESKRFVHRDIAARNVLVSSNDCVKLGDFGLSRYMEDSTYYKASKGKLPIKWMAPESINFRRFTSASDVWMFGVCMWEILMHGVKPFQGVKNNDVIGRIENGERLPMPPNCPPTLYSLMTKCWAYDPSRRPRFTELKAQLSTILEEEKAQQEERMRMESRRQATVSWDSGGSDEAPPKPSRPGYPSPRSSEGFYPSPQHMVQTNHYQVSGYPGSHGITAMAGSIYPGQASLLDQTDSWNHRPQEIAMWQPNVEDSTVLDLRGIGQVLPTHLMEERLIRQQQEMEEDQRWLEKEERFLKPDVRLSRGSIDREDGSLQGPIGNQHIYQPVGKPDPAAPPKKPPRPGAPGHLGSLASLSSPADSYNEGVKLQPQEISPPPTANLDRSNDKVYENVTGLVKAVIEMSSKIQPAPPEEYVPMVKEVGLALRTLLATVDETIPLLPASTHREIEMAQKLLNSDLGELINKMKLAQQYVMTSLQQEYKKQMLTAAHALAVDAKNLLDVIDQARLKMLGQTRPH
T22 sequence (P78368 whole entry): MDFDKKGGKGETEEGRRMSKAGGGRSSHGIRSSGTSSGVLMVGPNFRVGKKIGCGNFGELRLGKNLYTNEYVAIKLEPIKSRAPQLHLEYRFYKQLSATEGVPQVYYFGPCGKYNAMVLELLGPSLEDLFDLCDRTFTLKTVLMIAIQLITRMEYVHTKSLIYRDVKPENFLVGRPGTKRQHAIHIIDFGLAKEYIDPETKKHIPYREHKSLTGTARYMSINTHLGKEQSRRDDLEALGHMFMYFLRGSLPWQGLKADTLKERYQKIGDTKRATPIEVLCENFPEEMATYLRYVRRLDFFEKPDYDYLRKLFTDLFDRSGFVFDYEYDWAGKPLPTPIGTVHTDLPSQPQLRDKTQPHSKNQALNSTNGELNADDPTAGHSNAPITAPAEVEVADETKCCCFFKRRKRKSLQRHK
T2 sequence (P10721 26-976 D816V): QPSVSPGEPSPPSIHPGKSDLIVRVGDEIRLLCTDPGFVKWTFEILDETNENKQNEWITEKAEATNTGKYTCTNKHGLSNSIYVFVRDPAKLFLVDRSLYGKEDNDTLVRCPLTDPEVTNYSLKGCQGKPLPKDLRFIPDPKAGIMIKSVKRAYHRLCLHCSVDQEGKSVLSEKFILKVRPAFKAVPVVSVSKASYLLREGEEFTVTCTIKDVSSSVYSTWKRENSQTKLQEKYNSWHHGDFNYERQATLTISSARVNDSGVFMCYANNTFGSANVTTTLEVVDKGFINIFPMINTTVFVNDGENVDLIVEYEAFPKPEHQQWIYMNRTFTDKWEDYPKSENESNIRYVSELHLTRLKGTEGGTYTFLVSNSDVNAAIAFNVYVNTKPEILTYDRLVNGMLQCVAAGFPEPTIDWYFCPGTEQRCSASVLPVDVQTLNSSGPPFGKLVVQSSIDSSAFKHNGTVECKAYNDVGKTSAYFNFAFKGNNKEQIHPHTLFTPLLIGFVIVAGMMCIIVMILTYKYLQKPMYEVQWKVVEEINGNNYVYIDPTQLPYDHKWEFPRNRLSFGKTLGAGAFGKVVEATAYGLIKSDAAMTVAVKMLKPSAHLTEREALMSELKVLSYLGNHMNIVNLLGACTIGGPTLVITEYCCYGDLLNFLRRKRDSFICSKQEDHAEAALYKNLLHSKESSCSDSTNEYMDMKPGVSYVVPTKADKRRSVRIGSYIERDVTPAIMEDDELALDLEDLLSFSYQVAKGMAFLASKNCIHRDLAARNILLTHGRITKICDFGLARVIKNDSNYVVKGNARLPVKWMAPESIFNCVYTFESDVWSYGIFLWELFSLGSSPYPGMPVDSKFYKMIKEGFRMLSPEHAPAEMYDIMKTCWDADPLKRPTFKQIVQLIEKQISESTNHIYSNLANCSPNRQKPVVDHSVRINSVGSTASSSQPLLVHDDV
T32 sequence (O15111 whole entry): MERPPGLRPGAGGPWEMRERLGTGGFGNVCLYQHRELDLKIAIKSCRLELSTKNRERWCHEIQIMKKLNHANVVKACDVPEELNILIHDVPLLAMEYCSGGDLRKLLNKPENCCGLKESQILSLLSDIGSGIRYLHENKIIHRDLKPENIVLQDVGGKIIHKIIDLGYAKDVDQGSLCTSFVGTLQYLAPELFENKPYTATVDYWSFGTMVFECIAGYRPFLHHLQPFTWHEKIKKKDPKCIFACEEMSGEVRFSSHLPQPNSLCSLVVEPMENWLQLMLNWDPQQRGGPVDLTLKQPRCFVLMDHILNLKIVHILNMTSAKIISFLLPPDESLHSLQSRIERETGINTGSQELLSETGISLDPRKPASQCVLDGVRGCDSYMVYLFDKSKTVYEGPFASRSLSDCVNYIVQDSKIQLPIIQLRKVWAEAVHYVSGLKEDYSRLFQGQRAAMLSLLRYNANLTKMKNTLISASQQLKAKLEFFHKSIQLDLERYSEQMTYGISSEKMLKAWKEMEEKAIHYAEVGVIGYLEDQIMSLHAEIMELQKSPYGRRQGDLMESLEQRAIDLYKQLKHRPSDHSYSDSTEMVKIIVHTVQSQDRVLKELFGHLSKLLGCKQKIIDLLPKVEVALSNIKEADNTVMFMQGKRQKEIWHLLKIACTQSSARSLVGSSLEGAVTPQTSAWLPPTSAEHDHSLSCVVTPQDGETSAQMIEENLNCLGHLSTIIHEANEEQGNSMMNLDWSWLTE
T26 sequence (Q02750 whole entry): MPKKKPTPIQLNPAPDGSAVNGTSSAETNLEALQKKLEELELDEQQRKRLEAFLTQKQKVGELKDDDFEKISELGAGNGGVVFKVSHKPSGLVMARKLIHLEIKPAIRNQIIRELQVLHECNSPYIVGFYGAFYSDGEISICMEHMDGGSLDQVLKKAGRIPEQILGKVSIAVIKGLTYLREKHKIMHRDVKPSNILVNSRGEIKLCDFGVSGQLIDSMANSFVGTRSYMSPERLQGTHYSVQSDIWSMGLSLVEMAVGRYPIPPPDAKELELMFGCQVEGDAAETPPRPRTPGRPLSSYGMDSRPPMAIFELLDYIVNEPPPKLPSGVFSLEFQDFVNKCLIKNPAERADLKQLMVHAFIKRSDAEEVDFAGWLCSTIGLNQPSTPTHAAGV
T20 sequence (P10721 26-976 V559D/T670I): as the sequence (P10721 26-976 D816V) above, with V534D, T645I, V791D counted along it

## CCCN(c1nc(-c2nc(N)cc(N)n2)cs1)c1cc(-c2ccc(S(=O)(=O)N3CCN(C)CC3)cc2C(F)(F)F)ccc1C [OR0642]
[1]
  remaining binding at 1 µM: 100%
[2]
  remaining binding at 1 µM: 94%
[3]
  remaining binding at 1 µM: 80%
[4]
  remaining binding at 1 µM: 100%
[5]
  remaining binding at 1 µM: 100%
[6]
  remaining binding at 1 µM: 93%
[7]
  remaining binding at 1 µM: 100%
[8]
  remaining binding at 1 µM: 79%
[9]
  remaining binding at 1 µM: 100%
[10]
  remaining binding at 1 µM: 81%
[11]
  remaining binding at 1 µM: 100%
[12]
  remaining binding at 1 µM: 100%
[13]
  remaining binding at 1 µM: 100%
[14]
  remaining binding at 1 µM: 99%
[15]
  remaining binding at 1 µM: 91%
[16]
  remaining binding at 1 µM: 94%
[17]
  remaining binding at 1 µM: 100%
[18]
  remaining binding at 1 µM: 84%
[19]
  remaining binding at 1 µM: 100%
[20]
  remaining binding at 1 µM: 100%
[21]
  remaining binding at 1 µM: 90%
[22]
  remaining binding at 1 µM: 91%
[23]
  remaining binding at 1 µM: 98%
[24]
  remaining binding at 1 µM: 99%
[25]
  remaining binding at 1 µM: 98%
[26]
  remaining binding at 1 µM: 97%
[27]
  remaining binding at 1 µM: 100%
[28]
  remaining binding at 1 µM: 91%
[29]
  remaining binding at 1 µM: 96%
[30]
  remaining binding at 1 µM: 100%
[31]
  remaining binding at 1 µM: 99%
[32]
  remaining binding at 1 µM: 65%
[33]
  remaining binding at 1 µM: 91%
